Assay results taken from ChEMBL document CHEMBL5579821, “Non-kinase off-target inhibitory activities of clinically-relevant kinase inhibitors” (Eur J Med Chem, 2024).

Tests used:
[1] = cells; settings: Homo sapiens, NIH3T3
[2] = clinical; settings: human, plasma
[3] = target: Proto-oncogene tyrosine-protein kinase receptor Ret (Homo sapiens, UniProt P07949)
[4] = target: T1, Adenosine receptor A3 (Homo sapiens, UniProt P0DMS8)
T1 sequence (P0DMS8 whole entry): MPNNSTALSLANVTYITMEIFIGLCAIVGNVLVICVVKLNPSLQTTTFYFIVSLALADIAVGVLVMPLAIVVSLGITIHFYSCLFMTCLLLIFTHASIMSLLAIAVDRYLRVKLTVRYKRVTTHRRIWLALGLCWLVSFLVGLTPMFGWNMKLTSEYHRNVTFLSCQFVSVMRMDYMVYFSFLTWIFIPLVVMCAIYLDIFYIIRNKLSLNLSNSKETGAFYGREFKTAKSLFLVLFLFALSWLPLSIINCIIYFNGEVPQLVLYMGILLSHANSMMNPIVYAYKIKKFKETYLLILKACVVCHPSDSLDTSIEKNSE

[5] = clinical; settings: human, in vivo, po, 50 mg
[6] = target: T2, Aldo-keto reductase family 1 member C3 (Homo sapiens, UniProt P42330)
T2 sequence (P42330 whole entry): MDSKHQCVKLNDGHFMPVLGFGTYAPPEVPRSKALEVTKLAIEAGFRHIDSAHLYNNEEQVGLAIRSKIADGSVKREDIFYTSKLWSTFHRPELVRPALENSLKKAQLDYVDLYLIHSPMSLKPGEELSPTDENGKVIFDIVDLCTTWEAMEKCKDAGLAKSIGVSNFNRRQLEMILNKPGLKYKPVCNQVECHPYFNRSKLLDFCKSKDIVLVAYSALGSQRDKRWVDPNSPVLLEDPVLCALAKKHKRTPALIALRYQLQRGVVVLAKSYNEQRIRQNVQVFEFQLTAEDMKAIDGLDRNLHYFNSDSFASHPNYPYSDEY

[7] = clinical; settings: human, 300 mg
[8] = clinical; settings: human, plasma, 5 mg

Proto-oncogene tyrosine-protein kinase receptor Ret, sequence (P07949 whole entry): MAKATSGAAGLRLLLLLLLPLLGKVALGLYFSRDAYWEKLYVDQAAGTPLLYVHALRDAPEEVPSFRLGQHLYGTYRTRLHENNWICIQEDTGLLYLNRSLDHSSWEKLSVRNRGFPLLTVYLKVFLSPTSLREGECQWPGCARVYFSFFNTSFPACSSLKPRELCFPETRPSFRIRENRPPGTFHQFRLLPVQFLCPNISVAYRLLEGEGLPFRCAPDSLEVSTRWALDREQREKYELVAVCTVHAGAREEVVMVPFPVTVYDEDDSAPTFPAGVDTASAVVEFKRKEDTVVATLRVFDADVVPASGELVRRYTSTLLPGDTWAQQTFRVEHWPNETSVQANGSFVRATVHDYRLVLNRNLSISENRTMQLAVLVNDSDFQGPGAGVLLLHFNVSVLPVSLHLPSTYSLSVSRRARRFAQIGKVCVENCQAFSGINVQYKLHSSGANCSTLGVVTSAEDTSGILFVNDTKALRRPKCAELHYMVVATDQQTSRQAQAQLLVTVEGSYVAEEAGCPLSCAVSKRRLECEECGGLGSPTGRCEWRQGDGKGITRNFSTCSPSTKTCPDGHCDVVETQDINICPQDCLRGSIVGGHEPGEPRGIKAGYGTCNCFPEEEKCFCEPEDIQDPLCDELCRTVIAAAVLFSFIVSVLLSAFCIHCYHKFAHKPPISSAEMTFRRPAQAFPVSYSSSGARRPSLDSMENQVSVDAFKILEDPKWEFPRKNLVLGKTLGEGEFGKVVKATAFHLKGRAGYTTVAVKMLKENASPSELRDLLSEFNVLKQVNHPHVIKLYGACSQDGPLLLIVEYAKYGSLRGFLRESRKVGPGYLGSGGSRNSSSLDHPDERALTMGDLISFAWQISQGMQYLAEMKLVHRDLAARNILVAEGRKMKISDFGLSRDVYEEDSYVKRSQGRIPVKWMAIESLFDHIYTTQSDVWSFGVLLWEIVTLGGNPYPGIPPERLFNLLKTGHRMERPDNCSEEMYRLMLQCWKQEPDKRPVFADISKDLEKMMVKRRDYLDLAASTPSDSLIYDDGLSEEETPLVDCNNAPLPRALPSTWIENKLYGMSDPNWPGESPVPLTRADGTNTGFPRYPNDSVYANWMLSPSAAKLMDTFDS

## Cc1cn(-c2cc(NC(=O)c3ccc(C)c(Nc4nccc(-c5cccnc5)n4)c3)cc(C(F)(F)F)c2)cn1 [NILOTINIB]
[1]
  IC50: 374 nM
[2]
  Cmax: 1640 ng/mL

## CCCS(=O)(=O)Nc1ccc(F)c(C(=O)c2c[nH]c3ncc(-c4ccc(Cl)cc4)cc23)c1F [VEMURAFENIB]
[3]
  IC50: 4.8 nM

## COc1cc(Nc2ncc(F)c(Nc3ccc4c(n3)NC(=O)C(C)(C)O4)n2)cc(OC)c1OC
[4]
  IC50: 18 nM

## CO[C@@H]1[C@H](N(C)C(=O)c2ccccc2)C[C@H]2O[C@]1(C)n1c3ccccc3c3c4c(c5c6ccccc6n2c5c31)C(=O)NC4 [MIDOSTAURIN]
[5]
  Cmax at 192 h: 1600 ng/mL

## CCc1cnn2c(NCc3ccc[n+]([O-])c3)cc(N3CCCC[C@H]3CCO)nc12 [DINACICLIB]
[6]
  Kd: 69 nM

## Cc1cnc(Nc2ccc(OCCN3CCCC3)cc2)nc1Nc1cccc(S(=O)(=O)NC(C)(C)C)c1 [FEDRATINIB]
[7]
  Cmax: 971 ng/mL

## CNC(=O)c1ccccc1Sc1ccc2c(/C=C/c3ccccn3)n[nH]c2c1 [AXITINIB]
[8]
  Cmax: 27.8 ng/mL
